Converted amounts (≈) assume the structure as drawn. The source made the active and inactive calls. No cut-off for these calls is given here.
Tests used:
[1] = Cmax in BALB/c mouse at 10 mg/kg, po measured upto 24 hrs by LC-MS/MS analysis; format: ADME, organism-based; parameters: dose 10 mg/kg, route oral; details: in vivo
[2] = Clearance in BALB/c mouse at 2 mg/kg, iv measured upto 24 hrs by LC-MS/MS analysis; format: ADME, organism-based; details: in vivo
[3] = Volume of distribution at steady state in BALB/c mouse at 2 mg/kg, iv measured upto 24 hrs by LC-MS/MS analysis; format: ADME, organism-based; details: in vivo, read-out: Vdss
[4] = Half life in BALB/c mouse at 2 mg/kg, iv measured upto 24 hrs by LC-MS/MS analysis; format: ADME, organism-based; details: in vivo
[5] = Cmax in BALB/c mouse at 2 mg/kg, iv measured upto 24 hrs by LC-MS/MS analysis; format: ADME, organism-based; parameters: dose 2 mg/kg, route intravenous; details: in vivo
[6] = Half life in BALB/c mouse at 10 mg/kg, po measured upto 24 hrs by LC-MS/MS analysis; format: ADME, organism-based; details: in vivo
[7] = AUC in BALB/c mouse at 10 mg/kg, po measured upto 24 hrs by LC-MS/MS analysis; format: ADME, organism-based; parameters: dose 10 mg/kg, time < 24 hr, route oral; details: in vivo
LC-2-ad [8] = experiment: Cytotoxicity against human LC2/ad cells assessed as reduction in cell viability incubated for 6 days by CellTiter Glo assay; format: cell-based; details: 144 h
[9] = Oral bioavailability in BALB/c mouse at 10 mg/kg measured upto 24 hrs by LC-MS/MS analysis; format: ADME, organism-based; details: in vivo
[10] = AUC in BALB/c mouse at 2 mg/kg, iv measured upto 24 hrs by LC-MS/MS analysis; format: ADME, organism-based; parameters: dose 2 mg/kg, time < 24 hr, route intravenous; details: in vivo
[11] = Aqueous solubility of compound at pH 6.8 incubated for 24 hrs by HPLC/UV analysis; format: physicochemical
Mus musculus [12] = experiment: In vivo inhibition of KIF5B/RET transfected in rat RIE cells xenografted in Harlan Foxn1 nude mouse assessed as reduction in intratumoral RET phosphorylation at 1 to 3 mg/kg, po qd for 10 days and measured after 24 hrs post-last dose by Western blot analysis; format: functional, organism-based
Rattus norvegicus [13] = experiment: Antitumor activity against rat RIE cells transfected with KIF5B/RET xenografted in Harlan Foxn1 nude mouse assessed as tumor regression at 10 mg/kg, po qd for 10 days; format: functional, organism-based
Rattus norvegicus [14] = experiment: Antitumor activity against rat RIE cells transfected with KIF5B/RET xenografted in Harlan Foxn1 nude mouse assessed as tumor growth inhibition at 1 mg/kg, po qd for 10 days; format: functional, organism-based
Mus musculus [15] = experiment: In vivo inhibition of KIF5B/RET transfected in rat RIE cells xenografted in Harlan Foxn1 nude mouse assessed as reduction in intratumoral RET phosphorylation at 1 to 3 mg/kg, po qd for 10 days and measured after 5 hrs post-last dose by Western blot analysis; format: functional, organism-based
Rattus norvegicus [16] = experiment: Antitumor activity against rat RIE cells transfected with KIF5B/RET xenografted in Harlan Foxn1 nude mouse assessed as reduction in visible vasculature at 10 to 60 mg/kg, po qd for 14 days; format: functional, organism-based
Rattus norvegicus [17] = experiment: Antitumor activity against rat RIE cells transfected with KIF5B/RET xenografted in Harlan Foxn1 nude mouse assessed as tumor stasis at 3 mg/kg, po qd for 10 days; format: functional, organism-based
LC-2-ad [18] = experiment: Antitumor activity against human LC2/ad cells xenografted in NSG mouse assessed as reduction in tumor volume at 10 mg/kg, po qd for 21 days measured following cessation of drug treatment; format: functional, organism-based
Rattus norvegicus [19] = experiment: Antitumor activity against rat RIE cells transfected with KIF5B/RET xenografted in Harlan Foxn1 nude mouse assessed as tumor regression at 10 to 60 mg/kg, po qd for 14 days; format: functional, organism-based
[20] = Toxicity in Harlan Foxn1 nude mouse xenografted with rat RIE cells transfected with KIF5B/RET assessed as hypothermia at 10 to 60 mg/kg, po administered bid for 8 days; format: organism-based; details: in vivo, 192 h
[21] = Toxicity in Harlan Foxn1 nude mouse xenografted with rat RIE cells transfected with KIF5B/RET assessed as lungs hemorrhaging at 3 mg/kg, po administered bid for 8 days; format: organism-based; details: in vivo, 192 h
[22] = Toxicity in Harlan Foxn1 nude mouse xenografted with rat RIE cells transfected with KIF5B/RET assessed as lungs hemorrhaging at 10 to 60 mg/kg, po administered bid for 8 days; format: organism-based; details: in vivo, 192 h
[23] = biological target: T1, Voltage-gated inwardly rectifying potassium channel KCNH2 (Homo sapiens, UniProt Q12809); experiment: Displacement of [3H]-dofetilide from human ERG expressed in CHO cells incubated for 90 mins by microbeta scintillation counting method; format: cell-based
T1 sequence (Q12809 whole entry): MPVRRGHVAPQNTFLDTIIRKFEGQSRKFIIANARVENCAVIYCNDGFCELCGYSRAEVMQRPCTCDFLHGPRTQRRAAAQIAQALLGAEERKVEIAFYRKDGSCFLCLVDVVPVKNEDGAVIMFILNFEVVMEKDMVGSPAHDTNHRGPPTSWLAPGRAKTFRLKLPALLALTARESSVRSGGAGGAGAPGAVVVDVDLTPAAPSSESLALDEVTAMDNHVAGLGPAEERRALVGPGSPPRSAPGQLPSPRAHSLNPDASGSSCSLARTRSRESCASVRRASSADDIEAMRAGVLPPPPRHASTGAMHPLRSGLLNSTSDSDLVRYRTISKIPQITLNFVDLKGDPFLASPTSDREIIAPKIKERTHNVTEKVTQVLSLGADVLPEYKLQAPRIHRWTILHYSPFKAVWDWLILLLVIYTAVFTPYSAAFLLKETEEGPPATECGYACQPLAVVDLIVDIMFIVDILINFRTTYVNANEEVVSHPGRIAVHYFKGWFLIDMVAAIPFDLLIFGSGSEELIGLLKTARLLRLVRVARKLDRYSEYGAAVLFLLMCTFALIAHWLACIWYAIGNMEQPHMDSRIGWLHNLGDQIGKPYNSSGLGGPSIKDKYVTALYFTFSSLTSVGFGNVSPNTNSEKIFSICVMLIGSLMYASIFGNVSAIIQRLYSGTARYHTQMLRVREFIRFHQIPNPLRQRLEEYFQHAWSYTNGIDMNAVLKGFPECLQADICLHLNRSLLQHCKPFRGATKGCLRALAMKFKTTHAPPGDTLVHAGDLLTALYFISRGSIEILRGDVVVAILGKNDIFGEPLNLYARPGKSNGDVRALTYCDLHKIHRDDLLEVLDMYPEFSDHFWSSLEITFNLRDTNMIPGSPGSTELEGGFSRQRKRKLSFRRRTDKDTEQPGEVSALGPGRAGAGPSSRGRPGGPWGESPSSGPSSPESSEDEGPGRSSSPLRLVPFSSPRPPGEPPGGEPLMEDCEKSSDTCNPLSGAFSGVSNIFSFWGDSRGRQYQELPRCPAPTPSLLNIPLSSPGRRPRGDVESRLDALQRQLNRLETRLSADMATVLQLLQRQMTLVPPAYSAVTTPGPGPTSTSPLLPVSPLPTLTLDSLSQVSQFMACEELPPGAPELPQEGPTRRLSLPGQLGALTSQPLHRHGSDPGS

[24] = Toxicity in Harlan Foxn1 nude mouse xenografted with rat RIE cells transfected with KIF5B/RET assessed as hypothermia at 3 mg/kg, po administered bid for 8 days; format: organism-based; details: in vivo, 192 h
[25] = biological target: T1, Voltage-gated inwardly rectifying potassium channel KCNH2; experiment: Inhibition of human ERG expressed in human embryonic kidney cells by manual patch clamp assay; format: cell-based
BaF3 = experiment: Cytotoxicity against mouse BA/F3 cells assessed as reduction in cell viability incubated for 48 hrs by brightglo-luciferase reporter gene assay; format: cell-based; details: BaF3, 48 h
Bcr/Abl fusion protein = Bcr/Abl fusion protein (Homo sapiens, UniProt P00519); experiment: Inhibition of BCR/ABL (unknown origin) transfected in mouse Ba/F3 cells assessed as reduction in cell viability incubated for 48 hrs by brightglo-luciferase reporter gene assay; format: cell-based, BaF3
Bcr/Abl fusion protein, sequence (P00519 whole entry, the tested form may be a part): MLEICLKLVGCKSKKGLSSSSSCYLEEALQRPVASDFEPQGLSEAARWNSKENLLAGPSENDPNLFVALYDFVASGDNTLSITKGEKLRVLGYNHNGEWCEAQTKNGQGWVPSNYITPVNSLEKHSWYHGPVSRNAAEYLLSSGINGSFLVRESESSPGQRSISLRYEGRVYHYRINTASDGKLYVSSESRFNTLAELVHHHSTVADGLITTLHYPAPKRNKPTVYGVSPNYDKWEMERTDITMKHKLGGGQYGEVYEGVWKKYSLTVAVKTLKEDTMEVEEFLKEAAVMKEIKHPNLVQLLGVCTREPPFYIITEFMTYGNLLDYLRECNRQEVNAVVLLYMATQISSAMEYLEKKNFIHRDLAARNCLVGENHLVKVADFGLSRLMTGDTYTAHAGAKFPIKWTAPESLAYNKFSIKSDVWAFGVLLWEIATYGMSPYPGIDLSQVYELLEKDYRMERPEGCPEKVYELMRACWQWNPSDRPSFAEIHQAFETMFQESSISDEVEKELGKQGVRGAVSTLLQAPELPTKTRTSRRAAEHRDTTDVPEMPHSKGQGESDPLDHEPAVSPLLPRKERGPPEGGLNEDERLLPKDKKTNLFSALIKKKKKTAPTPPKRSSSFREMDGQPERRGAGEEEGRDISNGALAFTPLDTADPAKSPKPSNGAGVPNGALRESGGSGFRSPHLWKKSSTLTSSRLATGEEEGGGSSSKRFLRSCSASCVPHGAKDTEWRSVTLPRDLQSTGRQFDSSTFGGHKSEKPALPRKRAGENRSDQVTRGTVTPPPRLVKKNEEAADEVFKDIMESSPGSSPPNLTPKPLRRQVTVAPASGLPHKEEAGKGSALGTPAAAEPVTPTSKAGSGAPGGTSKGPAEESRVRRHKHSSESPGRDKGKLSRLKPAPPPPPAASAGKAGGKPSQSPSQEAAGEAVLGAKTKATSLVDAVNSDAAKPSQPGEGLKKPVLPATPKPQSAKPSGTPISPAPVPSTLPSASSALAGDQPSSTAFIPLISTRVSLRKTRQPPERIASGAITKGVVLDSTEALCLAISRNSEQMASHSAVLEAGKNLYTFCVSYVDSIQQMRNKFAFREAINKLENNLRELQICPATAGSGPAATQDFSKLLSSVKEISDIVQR
Bcr/Abl fusion protein, sequence (P11274 whole entry, further chain, the tested form may be a part): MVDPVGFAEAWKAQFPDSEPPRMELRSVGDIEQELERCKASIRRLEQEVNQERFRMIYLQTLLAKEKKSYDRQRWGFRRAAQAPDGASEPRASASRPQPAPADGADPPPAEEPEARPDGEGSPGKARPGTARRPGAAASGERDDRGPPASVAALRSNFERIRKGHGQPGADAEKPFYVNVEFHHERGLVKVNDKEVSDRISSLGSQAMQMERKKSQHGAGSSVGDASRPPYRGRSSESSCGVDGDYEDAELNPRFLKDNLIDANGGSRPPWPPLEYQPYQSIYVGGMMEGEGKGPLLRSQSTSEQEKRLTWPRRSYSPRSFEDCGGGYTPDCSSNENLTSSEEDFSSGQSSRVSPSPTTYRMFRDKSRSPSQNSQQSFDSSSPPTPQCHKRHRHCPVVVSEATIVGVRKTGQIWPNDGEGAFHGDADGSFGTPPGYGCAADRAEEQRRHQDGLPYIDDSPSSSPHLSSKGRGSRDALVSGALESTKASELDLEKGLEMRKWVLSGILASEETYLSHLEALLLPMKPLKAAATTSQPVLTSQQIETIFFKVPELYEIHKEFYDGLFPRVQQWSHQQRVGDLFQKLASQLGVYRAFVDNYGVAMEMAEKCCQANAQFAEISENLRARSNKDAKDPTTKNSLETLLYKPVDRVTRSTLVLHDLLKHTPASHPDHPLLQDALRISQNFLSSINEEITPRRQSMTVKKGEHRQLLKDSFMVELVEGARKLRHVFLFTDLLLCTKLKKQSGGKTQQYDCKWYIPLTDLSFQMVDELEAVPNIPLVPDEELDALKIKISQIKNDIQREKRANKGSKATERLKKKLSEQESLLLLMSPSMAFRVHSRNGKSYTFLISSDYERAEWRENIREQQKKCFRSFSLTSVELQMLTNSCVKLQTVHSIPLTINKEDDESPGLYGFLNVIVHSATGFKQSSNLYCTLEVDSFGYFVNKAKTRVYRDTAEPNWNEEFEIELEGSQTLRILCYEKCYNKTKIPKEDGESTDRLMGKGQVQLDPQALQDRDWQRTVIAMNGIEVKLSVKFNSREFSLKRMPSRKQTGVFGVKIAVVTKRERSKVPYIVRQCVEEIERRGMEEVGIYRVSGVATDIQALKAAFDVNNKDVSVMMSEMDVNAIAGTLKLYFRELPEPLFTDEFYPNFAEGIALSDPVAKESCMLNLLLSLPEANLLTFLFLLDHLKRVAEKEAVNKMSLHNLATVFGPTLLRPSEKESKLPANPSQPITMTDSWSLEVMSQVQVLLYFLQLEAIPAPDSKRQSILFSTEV

Compound `CN1C(C)(C)CC(Nc2nc3c(-c4ccc(C(=O)N5CCN(S(C)(=O)=O)CC5)cc4)cnn3c(N)c2-c2ccccc2)CC1(C)C` has a Cmax [1] of 100 nM, a clearance [2] of 110 mL/min/kg and a Vd [3] of 11 L/kg. The half-life [4] was 1.6 h, the Cmax [5] was 450 nM and the half-life [6] was 2.2 h. For the same compound, the AUC at 24 h [7] was 0.34 µM·h, the IC50 (LC-2-ad [8]) was 2800 nM and the bioavailability [9] was 14%. For the same compound, the AUC at 24 h [10] was 0.49 µM·h.

In the case of `COc1ccc(-c2cnn3c(N)c(-c4ccccc4)c(OC4CCNCC4)nc23)cc1OC`, the solubility at 24 h [11] is reported as 47 µM (≈ 20.9 µg/mL) and the IC50 (LC-2-ad [8]) is reported as 2700 nM.

For `COc1ccc(-c2cnn3c(N)c(-c4ccccc4)c(NC4CC(C)(C)N(C)C(C)(C)C4)nc23)cc1OC`, the inhibition (Mus musculus [12]) was “inactive”, the Activity (Rattus norvegicus [13]) was “Active” and the Activity (Rattus norvegicus [14]) was “Active”. The inhibition (Mus musculus [15]) was “Active”, the Activity (Rattus norvegicus [16]) was “Active” and the Activity (Rattus norvegicus [17]) was “Active”. The Activity (LC-2-ad [18]) was “Active” and the Activity (Rattus norvegicus [19]) was “Active”.

With `COC(=O)N1CCN(C(=O)c2ccc(-c3cnn4c(N)c(-c5ccccc5)c(NC5CC(C)(C)N(C)C(C)(C)C5)nc34)cc2)CC1` the Cmax [1] was 820 nM, the clearance [2] was 19 mL/min/kg and the Activity [20] was “Toxic”. The Vd [3] was 5.1 L/kg, the half-life [4] was 3.7 h and the Activity [21] was “Non-Toxic”. For the same compound, the Activity [22] was “Toxic”, the IC50 [23] was 7500 nM and the Activity [24] was “Non-Toxic”. For the same compound, the IC50 [25] was “Not Active”, the Cmax [5] was 940 nM and the half-life [6] was 3.7 h. For the same compound, the AUC at 24 h [7] was 8.7 µM·h, the IC50 (LC-2-ad [8]) was 1300 nM and the bioavailability [9] was 62%. For the same compound, the AUC at 24 h [10] was 2.8 µM·h.

`COc1ccc(-c2cnn3c(N)c(-c4ccccc4)c(OC4CCN(C)CC4)nc23)cc1OC` showed a solubility at 24 h [11] of 7.1 µM (≈ 3.26 µg/mL), an IC50 (BaF3) of over 11000 nM and an IC50 (Bcr/Abl fusion protein) of 870 nM. It also gave an IC50 (LC-2-ad [8]) of 1600 nM.

Compound `COc1ccc(-c2cnn3c(N)c(-c4ccccc4)c(NC4CCN(C)CC4)nc23)cc1OC` has a solubility at 24 h [11] of 85 µM (≈ 39 µg/mL) and an IC50 (LC-2-ad [8]) of 5500 nM.
